Source: patent publication US20110301155A1, “INDAZOLE COMPOUNDS FOR ACTIVATING GLUCOKINASE” (priority 2007, published 2011)
Where a name gives a salt, the structure may show the parent alone.

What was measured:
[1] = biological target: T1, GST-hLGK1 (human liver type GK) (Homo sapiens, UniProt P35557); assay: Determination of GK activity value (fluorescence assay); type: biochemical; settings: test compound 10 μmol/L, 5 mmol/L D-glucose, reaction rate as percentage of control without compound
T1 construct: made in house; host or cells: Escherichia coli BL21 (pGEX6P-2/hLGK1)
T1 sequence (P35557 1-464 isoform P35557-3): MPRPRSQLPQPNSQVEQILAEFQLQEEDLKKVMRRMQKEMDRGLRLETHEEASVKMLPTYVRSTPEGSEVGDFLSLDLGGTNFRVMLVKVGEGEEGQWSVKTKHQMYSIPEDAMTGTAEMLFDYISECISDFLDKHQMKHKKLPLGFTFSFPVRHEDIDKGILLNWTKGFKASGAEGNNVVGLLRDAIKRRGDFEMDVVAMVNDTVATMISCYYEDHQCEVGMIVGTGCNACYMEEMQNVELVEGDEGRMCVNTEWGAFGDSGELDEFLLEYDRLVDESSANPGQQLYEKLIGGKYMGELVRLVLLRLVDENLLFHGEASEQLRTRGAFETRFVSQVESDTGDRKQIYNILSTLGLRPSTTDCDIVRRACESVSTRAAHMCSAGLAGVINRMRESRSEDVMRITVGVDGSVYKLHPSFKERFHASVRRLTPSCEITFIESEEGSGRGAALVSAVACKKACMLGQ
Experimental: Plasmid DNA to be used for the expression of a protein (GST-hLGK1) containing GST (Glutathione S-transferase) added to the amino terminal of human liver type GK in Escherichia coli was prepared as shown below.
BL21 strain (Stratagene) transformed with pGEX6P-2/hLGK1 obtained in Reference Example 1A was cultured with shaking at 37° C. for 14 hr in a 200 ml Erlenmeyer flask containing 50 ml of 100 μg/ml ampicillin-containing LB medium. The culture medium (25 ml) was diluted with 225 ml of 100 μg/ml ampicillin-containing LB medium, and further cultured with shaking at 37° C. for 1 hr in a 1L Erlenmeyer flask. After culture, the Erlenmeyer flask was cooled on ice, 125 μL of 100 mM isopropyl-thio-β-D-galactopyranoside (IPTG) was added (final concentration 50 μM), and cultured at 17° C. for 20 hr. The culture medium was centrifuged, and the obtained fungus was disrupted by ultrasonication. The object protein (GST-hLGK1) was purified from the supernatant using Glutathione Sepharose 4B (Amersham Biosciences. K.K.).
GK enzyme reactions were performed in 50 mmol/L HEPES pH 7.4, 200 mmol/L KCl, 5 mmol/L MgCl2, 2 mmol/L DTT, containing 50 μmol/L 2′-(or-3′)-O-(N-methylanthraniloyl)adenosine 5′-triphosphate (Mant-ATP) (Jena Bioscience GmbH), 5 mmol/L D-glucose, 5% DMSO and 6 μg/mL GST-hLGK1 obtained in Reference Example 2A in a total volume 50 μL. The reactions were performed in 384 well black plates (Nalge Nunc International K.K.). Prior to the reaction, the enzyme and test compound were incubated for 10 min at 37° C., and 25 mM D-glucose solution (10 μL) was added to start the reaction. The final concentration of the test compound is 10 μmol/L. After the incubation for 60 min at 37° C., the reaction was quenched by adding 25 μL of a quenching solution (containing 200 mM HEPES (pH 7.4), 20 mM MgCl2, 200 mM EDTA, 0.03% Triton-X 100, 0.3% Coating 3 reagent (Caliper Life Sciences, Inc.)).
Mant-ATP (substrate, 2′-(or-3′)—O—(N-methylanthraniloyl)adenosine 5′-triphosphate) and Mant-ADP (reaction resultant product) were separated from each well after the reaction by a microchip type capillary electrophoresis apparatus 250 HTS (Caliper Life Sciences, Inc.). The reaction rate [(reaction resultant product peak height)/(reaction resultant product peak height+substrate peak height)×100(%)] was calculated from the ratio of the substrate peak height and reaction resultant product peak height obtained by fluorescence detection (excitation wavelength 355 nm, measurement wavelength 460 nm) and used as the index of GK activity.
As a control group, the reaction rate was calculated in the same manner as above without the test compounds.
The percentage obtained by dividing the reaction rate of the well added with the test compound (test compound addition group) by the reaction rate of the control group was taken as the GK activity value (Emax) of the test compound.

[2] = biological target: T2, GK (recombinant glucokinase, residues 12-465 of the human enzyme) (Homo sapiens, UniProt P35557); assay: Determination of GK activity value (luminescence assay); type: biochemical; settings: calculated maximal gain in GK enzyme activity at saturating compound concentration; 5 mM glucose, 5 μM ATP
T2 construct: FLAG (C-terminal tag of vector pFLAG-CTC; only the vector is printed) (C); made in house; host or cells: Escherichia coli DH10b-T1r (pFLAG-CTC plasmid)
T2 sequence (P35557 12-465): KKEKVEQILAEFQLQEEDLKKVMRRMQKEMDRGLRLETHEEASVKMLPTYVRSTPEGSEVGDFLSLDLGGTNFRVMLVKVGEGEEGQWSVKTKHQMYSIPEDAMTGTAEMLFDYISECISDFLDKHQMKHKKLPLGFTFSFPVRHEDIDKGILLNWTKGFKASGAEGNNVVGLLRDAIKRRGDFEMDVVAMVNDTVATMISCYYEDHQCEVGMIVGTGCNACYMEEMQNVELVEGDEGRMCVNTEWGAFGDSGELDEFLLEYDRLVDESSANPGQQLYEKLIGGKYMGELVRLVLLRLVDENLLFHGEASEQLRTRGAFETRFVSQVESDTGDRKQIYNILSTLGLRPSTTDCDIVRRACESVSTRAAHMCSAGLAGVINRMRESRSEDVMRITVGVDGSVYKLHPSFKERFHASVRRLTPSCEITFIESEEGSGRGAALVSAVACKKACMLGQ
From the text: DNA encoding residues 12-465 of the full-length sequence of the human enzyme may be amplified by PCR and cloned into the HindIII and EcoRI sites of pFLAG-CTC (Sigma). SEQ.I.D. No. 1 corresponds to residues 12-465 of glucokinase.
The expression of recombinant glucokinase protein may be carried out by transformation and growth of DH10b-T1r E. coli cells incorporating the (pFLAG-CTC) plasmid in LB media. Protein expression can be induced in this system by the addition of IPTG to the culture medium.
Recombinant protein may be isolated from cellular extracts by passage over Sepharose Q Fast Flow resin (Pharmacia). This partially purified GK extract may then be further purified by a second passage over Poros HQ10 (Applied Biosystems). The purity of GK may be determined on denaturing SDS-PAGE gel. Purified GK may then be concentrated to a final concentration of 20.0 mg/ml. After flash freezing in liquid nitrogen, the proteins can be stored at −78° C. in a buffer containing 25 mM TRIS-HCl pH 7.6, 50 mM NaCl, and 0.5 mM TCEP.
The activation properties of compounds for GK may be determined using a black 384-well-plate format under the following reaction conditions: 25 mM Hepes pH 7.2, 25 mM NaCl, 10 mM MgCl2, 0.01% Brij35, 1 mM DTT, 5 μM ATP, 5 mM Glucose 2% DMSO. The amount of ATP consumed may be determined quantitatively by addition of equal volume of luciferase reagent (luciferase+beetle luciferin—KinaseGlo Luminescent Kinase Assay kit from Promega). The luminescence intensity may be measured by using the Analyst HT from LJL Biosystems.
The assay reaction may be initiated as follows: 4 μl of substrate mixture (12.5 μM ATP and 12.5 mM Glucose) was added to each well of the plate, followed by the addition of 2 μl of activator (2 fold serial dilutions for 11 data points for each activator) containing 10% DMSO. 4 μL of 1.25 nM GK solution obtained in Reference Example 3A may be added to initiate the reaction. The reaction mixture may then be incubated at room temperature for 60 min, and quenched and developed by addition of 10 μL of luciferase reagent. Luminescence intensities of the resulting reaction mixtures may be measured after a 10 min incubation at room temperature. The luminescence intensity may be measured by using the Analyst HT from LJL Biosystems.
% ACTmax values may be calculated by non-linear curve fitting of the compound concentrations and luminescence intensities to a standard inhibition/activation equation. % ACTmax represents the calculated maximal gain in GK enzyme activity at a saturating concentration of the compound. % ACTmax values for select compounds of the present invention are given in Table 2.

Row | SMILES | melting point | Emax at 10 µM [1] | % ACTmax [2]
1 | COC[C@H](C)Oc1cc(OCCc2ccccn2)c2[nH]nc(Nc3nccs3)c2c1 (as salt: hydrochloride) [Example 108, 5-[(1S)-2-methoxy-1-methylethoxy]-7-(2-pyridin-2-ylethoxy)-N-1,3-thiazol-2-yl-1H-indazole-3-amine dihydrochloride] | 150 to 153 °C |  | 
2 | O=S(=O)(c1ccc2[nH]nc(Nc3nccs3)c2c1)N1CCCC1 [Example 20, 5-(pyrrolidin-1-ylsulfonyl)-N-1,3-thiazol-2-yl-1H-indazole-3-amine] |  | 156% | 
3 | CCCc1cc(-c2cc3ccccc3s2)c2[nH]nc(Nc3nccs3)c2c1 [Example 28, 7-(1-benzothien-2-yl)-5-propyl-N-1,3-thiazol-2-yl-1H-indazole-3-amine] |  | 231% | 
4 | CCn1nc(Nc2nccs2)c2cc(-c3ncccc3Cl)ccc21 [Example 30, 5-(3-chloropyridin-2-yl)-1-ethyl-N-1,3-thiazol-2-yl-1H-indazole-3-amine] |  | 129% | 
5 | Clc1cccnc1-c1ccc2[nH]nc(Nc3ncc(CN4CCOCC4)s3)c2c1 [Example 34, 5-(3-chloropyridin-2-yl)-N-[5-(morpholin-4-ylmethyl)-1,3-thiazol-2-yl]-1H-indazole-3-amine] | 217 °C | 186% | 
6 | Cn1ccc(Nc2n[nH]c3ccc(-c4ncccc4Cl)cc23)n1 [Example 63, 5-(3-chloropyridin-2-yl)-N-(1-methyl-1H-pyrazol-3-yl)-1H-indazole-3-amine] | 190 to 191 °C | 175% | 
7 | CC(C)Cc1cc(OCCc2ccsc2)c2[nH]nc(Nc3nccs3)c2c1 [Example 72, 5-isobutyl-N-1,3-thiazol-2-yl-7-[2-(3-thienyl)ethoxy]-1H-indazole-3-amine] | 150 to 151 °C | 194% | 
8 | CC(C)Cc1cc(OCC(=O)N(C)C)c2[nH]nc(Nc3nccs3)c2c1 [Example 73, 2-{[5-isobutyl-3-(1,3-thiazol-2-ylamino)-1H-indazole-7-yl]oxy}-N,N-dimethylacetamide] | 96 to 98 °C | 111% | 
9 | Clc1cccnc1-c1cc(OCCc2ccccn2)c2[nH]nc(Nc3nccs3)c2c1 [Example 85, 5-(3-chloropyridin-2-yl)-7-(2-pyridin-2-ylethoxy)-N-1,3-thiazol-2-yl-1H-indazole-3-amine] | 185 to 187 °C | 231% | 
10 | Cn1ccc(Nc2n[nH]c3c(OCCc4ccccn4)cc(-c4ncccc4Cl)cc23)n1 [Example 100, 5-(3-chloropyridin-2-yl)-N-(1-methyl-1H-pyrazol-3-yl)-7-(2-pyridin-2-ylethoxy)-1H-indazole-3-amine] | 89 to 91 °C | 200% | 
11 | CCNC(=O)Nc1n[nH]c2ccc(-c3ncccc3Cl)cc12 [Example 101, N-[5-(3-chloropyridin-2-yl)-1H-indazol-3-yl]-N′-ethylurea] | 178 to 180 °C | 202% | 
12 | Cn1ccc(Nc2n[nH]c3c(Oc4ccc(S(C)(=O)=O)cc4)cc(-c4ncccc4Cl)cc23)n1 [Example 105, 5-(3-chloropyridin-2-yl)-N-(1-methyl-1H-pyrazol-3-yl)-7-[4-(methylsulfonyl)phenoxy]-1H-indazole-3-amine] |  | 140% | 
13 | COC[C@H](C)Oc1cc(OCCc2ccccn2)c2[nH]nc(Nc3nccs3)c2c1 [Example 108, 5-[(1S)-2-methoxy-1-methylethoxy]-7-(2-pyridin-2-ylethoxy)-N-1,3-thiazol-2-yl-1H-indazole-3-amine dihydrochloride] |  | 199% | 
14 | Cn1ccnc1Sc1ccc2[nH]nc(Nc3nccs3)c2c1 [Example 109, 5-[(1-methyl-1H-imidazol-2-yl)thio]-N-1,3-thiazol-2-yl-1H-indazole-3-amine] | > 250 °C | 218% | 
15 | CC(C)S(=O)(=O)c1cc(OCCc2ccccn2)c2[nH]nc(Nc3nccs3)c2c1 [Example 117, 5-(isopropylsulfonyl)-7-(2-pyridin-2-ylethoxy)-N-1,3-thiazol-2-yl-1H-indazole-3-amine] | 190 to 191 °C | 211% | 
16 | CS(=O)(=O)c1ccc(Oc2cc(-c3ncccc3Cl)cc3c(Nc4ccn(CC(O)CO)n4)n[nH]c23)cc1 (stereo not shown) [Example 131, 3-(3-(5-(3-chloropyridin-2-yl)-7-(4-(methylsulfonyl)phenoxy)-1H-indazol-3-ylamino)-1H-pyrazol-1-yl)propane-1,2-diol] |  |  | 147.8%
